Source: patent US10768185B2, “Tenofovir detection assay” (TRUSTEES OF BOSTON UNIVERSITY, priority 2017, dated 2020)
Where a name gives a salt, the structure may show the parent alone.

What was measured:
[1] = cited from earlier work
[2] = test system: anti-TFV antibody conjugated to gold nanoparticles; assay: Competitive gold nanoparticle lateral flow assay, sensitivity test; assay type: binding, rabbit
Method: (§1) Hi-Flow Plus HF180 nitrocellulose sheets were laser cut into lateral flow strips and chromatography paper was adhered to the end of the strips as a waste reservoir using autoclave tape. Samples of TFV were prepared at varying concentrations between 10 ng/mL and 100 μg/mL in urine alongside a no TFV control sample. For each sample, 1 μL of conjugated gold nanoparticles was added to 244, of PBS and 804, of sample was added. The mixture was allowed to incubate at room temperature on a rotator for at least 30 minutes. 0.3 μL of anti-rabbit antibody was spotted on the strips as a control spot. 0.3 μL of 2.5 μg/mL BSA-TFV was spotted as the test spot on the strips upstream of the control spot. The spots were allowed to dry and another 0.3 μL of BSA-TFV was spotted on top of the test spot. After incubation, concentrated TBS-T was added to each sample such that the final Tween 20 concentration was 0.05%. One end of each of the lateral flow strips was dipped vertically into the sample tubes such that the solution ran up the nitrocellulose strip and into the waste reservoir via capillary action. The strips were incubated in the solution for 25-30 minutes before being photographed with a Nikon DS-Ri2 camera and analyzed via ImageJ.
There was a statistically significant difference between groups as determined by one-way ANOVA (F(5,24)=15.0, p=1.02×10^−6).

[3] = test system: anti-TFV polyclonal antibody; assay: Competitive dot blot assay; assay type: binding, rabbit; conditions: spiked urine, HRP-coupled secondary antibody
Method: Nitrocellulose strips were cut to dimensions of approximately 7 mm by 25 mm. BSA-TFV solution in PBS was diluted down to either 1 μg/mL or 100 ng/mL representing about a 1000-fold or 10,000-fold dilution factor. The strips were then spotted 3 times with luL of diluted BSA-TFV and allowed to dry. The strips were blocked with 5% milk in tris-buffered saline with Tween 20 (TBS-T) for 30 minutes and washed three times with TBS-T. Samples of TFV were prepared at varying concentrations between 1 ng/mL and 1 μg/mL in either TBS-T or human urine alongside a no TFV control sample. Anti-TFV polyclonal antibody from raw serum (e.g., unpurified) was added to the TFV samples at a dilution of 1:50,000 and incubated at room temperature while rotating for at least 1 hour. The strips were incubated in the spiked urine or TBS-T solutions of TFV and anti-TFV polyclonal antibody at room temperature while rotating for 1 hour and washed three times with TBS-T followed by a high-salt (500 mM NaCl) TBS-T wash and a low-salt (50 mM NaCl) TBS-T wash. The strips were then incubated in a 1:8000 dilution in TBS-T of anti-Rabbit antibody conjugated to HRP at room temperature while rotating for 1 hour and washed three times with TBS-T. The HRP was then visualized by pico chemiluminescent substrate and chemiluminescent photographs were taken by a VersaDoc Imaging Model 4000 system from BioRad.

[4] = test system: anti-TFV polyclonal antibody; assay: Immunoprecipitation of TFV by anti-TFV antibody, LC-MS readout; assay type: binding, rabbit; conditions: mixture of 50 μg/mL TFV and 1 mg/mL AMP (AMP 20× higher), anti-TFV serum, Protein G beads
Method: LC-MS measurements were taken on an Agilent 1100 series LC/MSD with a Cortecs C18 column (90 Å, 2.7 μm, 4.6 mm×150 mm) from Waters (Milford, Mass.). Samples were dissolved in a solution of 9754, 0.6% trifluoroacetic acid in water and 254, methanol. 204, of sample was injected into a gradient mobile phase outlined in Table 1 at a flowrate of 0.6 mL/min into the column equilibrated at 45° C. and passed through the mass spectrometer set for positive polarity electrospray ionization (ESI+) at a range of 100-1500 m/z.
Two samples were prepared containing a mixture of 1004, of 50 μg/mL TFV and 100 μL of 1 mg/mL AMP. To one tube 375 μL of anti-TFV serum (+IP) was added and to the other 375 μL of PBS (−IP). The samples were incubated while rotating at 4° C. overnight. 3004, of Protein G bead suspension was added to the samples and further incubated at 4° C. for 1 hour. The samples were spun down for 1 minute at 3000 rpm and decanted. The supernatant from the (−IP) sample (−IPsup) was set aside. The beads were then washed and decanted four times with yeast lysis buffer (50 mM HEPES pH 7.6, 1 mM EDTA, 1% Triton X-100, 0.1% sodium deoxycholate, 140 mM NaCl), with the third wash being with a high salt yeast lysis buffer (500 mM NaCl). The beads were then heat eluted for 5 minutes at 95° C. into 100 μL of TE buffer. […]

[5] = test system: anti-TFV antibody conjugated to gold nanoparticles; assay: Lateral flow assay specificity test; assay type: binding, rabbit; conditions: 100 μg/mL in urine
Method: as §1
The protocol is the same as the competitive lateral flow assay. Solutions of TFV, AZT, Abcavir, AMP, and adenine were made at concentrations of 100 μg/mL alongside a urine only control sample.

[6] = cited from earlier work; remark: listed apart in the source

## CC(C)OC(=O)[C@H](C)N[P@](=O)(CO[C@H](C)Cn1cnc2c(N)ncnc21)Oc1ccccc1 [TAF, tenofovir alafenamide]
[1]; TAF 25 mg per day, compared with TDF
  decrease in TFV plasma concentrations: ~10 ×

## C[C@H](Cn1cnc2c(N)ncnc21)OCP(=O)(O)O [TFV, Tenofovir]
[2]; 1 μg/mL, 10 μg/mL and 100 μg/mL TFV in urine, N=5
  test spot intensity versus no-TFV control (ANOVA, Tukey post hoc): statistically significant differences
[2]; spiked urine, preliminary
  lower limit of detection / sensitivity: 1 µg/mL
[3]
  lower limit of detection: 35 nM
[4]
  presence in immunoprecipitation product by LC-MS: presence
[1]; 300 mg ingested only once, after 24-72 hours
  concentration of TFV in urine: 1000 to 10000 ng/mL
[1]; patients on TFV regimens
  urinary concentration of TFV relative to plasma concentration: over 100 ×
[5]
  staining of test area (no staining = positive for TFV): no staining

## CC(C)OC(=O)OCOP(=O)(CO[C@H](C)Cn1cnc2c(N)ncnc21)OCOC(=O)OC(C)C [TDF, tenofovir disoproxil fumarate]
[1]; patient taking 300 mg TDF daily
  urine concentration of TFV: around 23 μg/mL

## NNC(=O)c1ccncc1 [INH, isoniazid]
[6]; typical dose 250 mg/day for a 50 kg patient
  urinary concentrations of INA: ~100 µg/mL
[6]; within 24 hr
  oral dose recovered in the urine as INA: 30-40%

## Nc1ncnc2c1ncn2[C@@H]1O[C@H](COP(=O)(O)O)[C@@H](O)[C@H]1O [AMP, adenosine monophosphate]
[4]
  presence in immunoprecipitation product by LC-MS: absence
[5]
  staining of test area (no staining = positive for TFV): staining in both the test area and control area

## Nc1ncnc2nc[nH]c12 [Adenine, adenine]
[5]
  staining of test area (no staining = positive for TFV): staining in both the test area and control area

## Cc1cn([C@H]2C[C@H](N=[N+]=[N-])[C@@H](CO)O2)c(=O)[nH]c1=O [AZT]
[5]
  staining of test area (no staining = positive for TFV): staining in both the test area and control area

## Nc1nc(NC2CC2)c2ncn([C@H]3C=C[C@@H](CO)C3)c2n1 [Abcavir]
[5]
  staining of test area (no staining = positive for TFV): staining in both the test area and control area
